Measurements published in patent US5981545A, “N-linked azabicyclic heterocycles useful for treating dementia” (Beecham Group p.l.c., priority 1989, dated 1999).
pIC50: −log10 of the molar value. Counter-ions that a name gives are not always drawn.

Experiments:
muscarinic receptors [1] = test: Radio ligand binding, displacement of muscarinic agonist 3H-Oxotremorine-M (3H-OXO-M), rat cerebral cortex membranes; set-up: species or system Hooded Lister rats; conditions: 2 nM 3H-OXO-M, 2 mM magnesium chloride, tris pH 7.7, 37° C., 30 min
muscarinic receptors [2] = test: Radio ligand binding, displacement of muscarinic antagonist 3H-Quinuclidinyl Benzilate (3H-QNB), rat cerebral cortex membranes; set-up: species or system Hooded Lister rats; conditions: 0.27 nM 3H-QNB, tris pH 7.7, 37° C., 30 min

SMILES | pIC50 (muscarinic receptors [1]) | pIC50 (muscarinic receptors [2])
Cc1ccn(C2CN3CCC2CC3)n1 (racemic) [E1, (±) 3-(3-Methylpyrazol-1-yl)-1-azabicyclo[2.2.2]octane oxalate salt] | 6.43 | 5.30
c1cnn(C2CN3CCC2CC3)c1 (racemic) [E2, (±) 3-(Pyrazol-1-yl)-1-azabicyclo[2.2.2]octane dihydrochloride salt] | 5.90 | 4.46
Cc1ncn(C2CN3CCC2CC3)n1 (racemic) [E6, (±) 3-(3-Methyl-1,2,4-triazol-1-yl)-1-azabicyclo[2.2.2] octane dihydrochloride salt] | 7.17 | 5.25
c1ncn(C2CN3CCC2CC3)n1 (racemic) [E7, (±) 3-(1,2,4-Triazol-1-yl)-1-azabicyclo[2.2.2]octane dihydrochloride salt] | 6.32 | 4.36
Cc1nnn(C2CN3CCC2CC3)n1 (racemic) [E10, (±) 3-(5-Methyltetrazol-2-yl)-1-azabicyclo[2.2.2]octane hydrochloride salt] | 7.52 | 5.55
Nc1nnn(C2CN3CCC2CC3)n1 (racemic) [E11, (±) 3-(5-Aminotetrazol-2-yl)-1-azabicyclo[2.2.2]octane] | 7.42 | 5.19
Cc1cnn(C2CN3CCC2CC3)n1 (racemic) [E12, (±) 3-(4-Methyl-1,2,3-triazol-2-yl)-1-azabicyclo-[2.2.2]octane hydrochloride] | 6.59 | 5.68
c1nnn(C2CN3CCC2CC3)n1 (racemic) [E15, (±) 3-(Tetrazol-2-yl)-1-azabicyclo[2.2.2]octane hydrochloride salt] | 6.62 | 4.55
c1nnnn1C1CN2CCC1CC2 (racemic) [E16, (±) 3-(Tetrazol-1-yl)-1-azabicyclo[2.2.2]octane hydrochloride salt] | 5.56 | 3.96
c1ncn(C23CCCN(CC2)C3)n1 (racemic) [E27, (±) 5-(1,2,4-Triazol-1-yl)-1-azabicyclo[3.2.1]octane dihydrochloride salt] | 7.92 | 5.49
Cc1ncn(C23CCCN(CC2)C3)n1 (racemic) [E28, (±) 5-(3-Methyl-1,2,4-triazol-1-yl)-1-azabicyclo-[3.2.1]octane dihydrochloride salt] | 7.77 | 5.59
c1nnnn1C12CCCN(CC1)C2 (racemic) [E30, (±) 5-(tetrazol-1-yl)-1-azabicyclo[3.2.1]octane] | 5.85 | 
Cc1nnn(C23CCCN(CC2)C3)n1 (racemic) [E31, (±) 5-(5-Methyltetrazol-2-yl)-1-azabicyclo[3.2.1]octane] | 7.94 | 5.54
Nc1nnn(C23CCCN(CC2)C3)n1 (racemic) [E33, (±) 5-(5-Aminotetrazol-2-yl)-1-azabicyclo[3.2.1]octane] | 8.12 | 5.21
Nc1nnnn1C12CCCN(CC1)C2 (racemic) [E34, (±) 5-(5-aminotetrazol-1-yl)-1-azabicyclo[3.2.1]octane] | 5.85 | 
Nc1ncn(C23CCCN(CC2)C3)n1 (racemic) [E36, (±) 5-(3-Amino-1,2,4-triazol-1-yl)-1-azabicyclo[3.2.1]octane] | 7.71 | 5.17
Nc1ncnn1C12CCCN(CC1)C2 (racemic) [E37, (±) 5-(5-amino-1,2,4-triazol-1-yl)-1-azabicyclo[3.2.1]octane] | 6.89 | 4.24
Nc1ncn(C2CN3CCC2CC3)n1 (racemic) [E38, (±) 3-(3-Amino-1,2,4-triazol-1-yl)-1-azabicyclo-[2.2.2]octane] | 6.74 | 4.84
Nc1ncnn1C1CN2CCC1CC2 (racemic) [E39, (±) 3-(5-amino-1,2,4-triazol-1-yl)-1-azabicyclo[2.2.2]octane dihydrochloride salt] | 4.84 | 
Brc1nnn(C2CN3CCC2CC3)n1 (racemic) [E40, (±) 3-[5-Bromotetrazol-2-yl]-1-azabicyclo[2.2.2]octane oxalate salt] | 7.71 | 6.31
Clc1nnn(C2CN3CCC2CC3)n1 (racemic) [E44, (±) 3-(5-Chlorotetrazol-2-yl)-1-azabicyclo[2.2.2]octane oxalate salt] | 7.50 | 6.14
N#Cc1nnn(C2CN3CCC2CC3)n1 (racemic) [E46, (±) 3-(5-Cyanotetrazol-2-yl)-1-azabicyclo[2.2.2]octane oxalate salt] | 5.85 | 5.11

SMILES | pIC50 (muscarinic receptors [1]) | pIC50 (muscarinic receptors [2])
Brc1ncn(C2CN3CCC2CC3)n1 (racemic) [E47, (±) 3-(3-Bromo-1,2,4-triazol-1-yl)-1-azabicyclo[2.2.2]-octane oxalate salt] | 7.00 | 5.48
Clc1ncn(C2CN3CCC2CC3)n1 (racemic) [E48, (±) 3-(3-Chloro-1,2,4-triazol-1-yl)-1-azabicyclo[2.2.2] octane oxalate salt] | 6.71 | 5.05
Clc1nnn(C23CCCN(CC2)C3)n1 (racemic) [E49, (±) 5-(5-Chlorotetrazol-2-yl)-1-azabicyclo[3.2.1]octane oxalate salt] | 8.49 | 6.30
Brc1nnn(C23CCCN(CC2)C3)n1 (racemic) [E50, (±) 5-(5-Bromotetrazol-2-yl)-1-azabicyclo[3.2.1]octane] | 8.19 | 6.39
Cc1ncn([C@@H]2CN3CC[C@@H]2C3)n1 (relative stereo) [E8, (±) exo-3-(3-Methyl-1,2,4-triazol-1-yl)-1-azabicyclo-[2.2.1]heptane dihydrochloride salt] | 7.66 | 5.20
c1ncn([C@@H]2CN3CC[C@@H]2C3)n1 (relative stereo) [E9, (±) exo-3-(1,2,4-Triazol-1-yl)-1-azabicyclo[2.2.1]heptane dihydrochloride salt] | 7.32 | 4.37
Nc1nnn([C@H]2C[C@@H]3CCN(C3)C2)n1 (relative stereo) [E17, (±) exo-3-(5-Aminotetrazol-2-yl)-1-azabicyclo[3.2.1] octane hydrochloride] | 6.77 | 5.57
Nc1nnn([C@@H]2CN3CC[C@@H]2C3)n1 (relative stereo) [E18, (±) exo-3-(5-Aminotetrazol-2-yl)-1-azabicyclo[2.2.1] heptane] | 8.58 | 5.37
c1nnn([C@@H]2CN3CC[C@@H]2C3)n1 (relative stereo) [E19, (±) exo-3-(Tetrazol-2-yl)-1-azabicyclo[2.2.1]heptane hydrochloride salt] | 7.52 | 4.65
Cc1nnn([C@@H]2CN3CC[C@@H]2C3)n1 (relative stereo) [E20, (±) exo-3-(5-Methyltetrazol-2-yl)-1-azabicyclo[2.2.1] heptane hydrochloride salt] | 8.35 | 5.52
Cc1nnnn1[C@@H]1CN2CC[C@@H]1C2 (relative stereo) [E21, (±) exo-3-(5-Methyltetrazol-1-yl)-1-azabicyclo[2.2.1] heptane hydrochloride salt] | 5.18 | 3.51
c1nnn([C@H]2C[C@@H]3CCN(C3)C2)n1 (relative stereo) [E22, (±) exo-3-(Tetrazol-2-yl)-1-azabicyclo[3.2.1]octane hydrochloride salt] | 6.82 | 4.26
CCc1nnn([C@@H]2CN3CC[C@@H]2C3)n1 (relative stereo) [E23, (±) exo-3-(5-Ethyltetrazol-2-yl)-1-azabicyclo[2.2.1] heptane hydrochloride salt] | 6.49 | 5.48
Cc1cnn([C@@H]2CN3CC[C@@H]2C3)n1 (relative stereo) [E25, (±) exo-3-(4-Methyl-1,2,3-triazol-2-yl)-1-azabicyclo-[2.2.1]heptane hydrochloride salt] | 6.74 | 4.66
Brc1nnn([C@@H]2CN3CC[C@@H]2C3)n1 (relative stereo) [E41, (±) exo-3-(5-Bromotetrazol-2-yl)-1-azabicyclo[2.2.1]heptane oxalate salt] | 8.19 | 5.82
Clc1nnn([C@@H]2CN3CC[C@@H]2C3)n1 (relative stereo) [E42, (±) exo-3-(5-Chlorotetrazol-2-yl)-1-azabicyclo[2.2.1]heptane oxalate salt] | 8.12 | 6.15
Ic1nnn([C@@H]2CN3CC[C@@H]2C3)n1 (relative stereo) [E43, (±) exo-3-(5-Iodotetrazol-2-yl)-1-azabicyclo[2.2.1]heptane oxalate salt] | 7.38 | 6.48
Brc1ncn([C@@H]2CN3CC[C@@H]2C3)n1 (relative stereo) [E54, (±) exo-3-(3-Bromo-1,2,4-triazol-1-yl)-1-azabicyclo-[2.2.1]heptane oxalate salt] | 7.49 | 5.36
Cc1ncn(C2=CN3CCC2CC3)n1 [E5, 3-(3-Methyl-1,2,4-triazol-1-yl)-1-azabicyclo[2.2.2]oct-2-ene dihydrochloride] | 6.19 | 4.52
c1nnn(C23CCCN(CC2)C3)n1 (centres unmarked) [E29, 5-(Tetrazol-2-yl)-1-azabicyclo[3.2.1]octane] | 7.66 | 4.89
c1ncn(C23CCN(CC2)C3)n1 [E51, 4-(1,2,4-Triazol-1-yl)-1-azabicyclo[2.2.1]heptane oxalate salt] | 7.78 | 4.19
